Source: patent publication US4476122A, “Alkyloximes of 7-amino-thiazolyl-acetamido-cephalosporanic acids” (Roussel Uclaf, priority 1976, dated 1984)
In brackets after ≈: the same amount, converted by molar mass. Where two headings read alike, the source gives them in different places.

Legend:
[1] = Hygroscopicity of the crystalline salt; assay type: physicochemical; details: microcrystalline sodium salt
[2] = test system: Escherichia Coli Resistant Gentamicine, Tobramycine R 55 123 D; test: MIC, liquid medium dilution; assay type: cell-based
Protocol: (§1) The method used was a dilution of a liquid medium where a series of tubes received the same quantity of a sterile nutritive media and increasing doses of the test compounds were placed therein. Then each tube was seeded with a bacterial strain and was incubated for 24 or 48 hours at 37° C. in an oven. The increasing inhibition was determined by transillumination to determine the minimum inhibiting concentration (MIC in μg/ml) and the results are reported in the following Tables.

Providencia Du 48 = test: MIC, liquid medium dilution; assay type: cell-based
Protocol: as §1

[3] = test system: Streptococcus pyogenes A 561; test: MIC, liquid medium dilution; assay type: cell-based; details: read-out: MIC
Protocol: as §1

[4] = test system: Streptococcus faecalis 5 432; test: MIC, liquid medium dilution; assay type: cell-based
Protocol: as §1

[5] = test system: Escherichia Coli Resistant Tetracycline ATCC 11 303; test: MIC, liquid medium dilution; assay type: cell-based; details: read-out: MIC
Protocol: as §1

[6] = test system: Serratia Resistant Gentamicine 2 532; test: MIC, liquid medium dilution; assay type: cell-based; details: read-out: MIC
Protocol: as §1

[7] = test system: Staphylococcus aureus ATCC 6 538 Pen-Sensitive; test: MIC, liquid medium dilution; assay type: cell-based; details: read-out: MIC
Protocol: as §1

Enterobacter cloacae 681 = test: MIC, liquid medium dilution; assay type: cell-based
Protocol: as §1

[8] = test system: Bacillus subtilis ATCC 6 633; test: MIC, liquid medium dilution; assay type: cell-based
Protocol: as §1

[9] = test system: Escherichia Coli Sensitive Tetracycline ATCC 9 637; test: MIC, liquid medium dilution; assay type: cell-based
Protocol: as §1

[10] = test system: Escherichia Coli Exp. TO26 B6; test: MIC, liquid medium dilution; assay type: cell-based
Protocol: as §1

[11] = test system: Staphylococcus aureus exp. n° 54 146; test: MIC, liquid medium dilution; assay type: cell-based
Protocol: as §1

[12] = test system: Salmonella typhimurium 420; test: MIC, liquid medium dilution; assay type: cell-based; details: Salmonella enterica
Protocol: as §1

[13] = test system: Klebsiella pneumoniae 2 536 Resistant Gentamicine; test: MIC, liquid medium dilution; assay type: cell-based
Protocol: as §1

[14] = test system: Pseudomonas 3 935 Exp. SG; test: MIC, liquid medium dilution; assay type: cell-based; details: 3935EXP.SG
Protocol: as §1

[15] = test system: Klebsiella pneumoniae Exp. 52 145; test: MIC, liquid medium dilution; assay type: cell-based; details: read-out: MIC
Protocol: as §1

[16] = test system: Staphylococcus aureus UC 1 128 Pen-Resistant; test: MIC, liquid medium dilution; assay type: cell-based
Protocol: as §1

[17] = test system: Streptococcus faecalis 99 F 74; test: MIC, liquid medium dilution; assay type: cell-based; details: Enterococcus faecalis
Protocol: as §1

[18] = test system: Proteus mirabilis (indol-) A 235; test: MIC, liquid medium dilution; assay type: cell-based; details: read-out: MIC
Protocol: as §1

[19] = test system: Proteus vulgaris (indol+) A 232; test: MIC, liquid medium dilution; assay type: cell-based
Protocol: as §1

[20] = test system: Klebsiella pneumonia 52,145; test: Experimental infection with Klebsiella pneumonia in mice (C); assay type: in vivo; details: subcutaneous
Protocol: The activity of the products of Examples 4 and 6 was studied on an experimental infection of Klebsiella pneumonia in mice. Groups of 10 male mice weighing 21 g were infected by an intraperitoneal injection of 0.5 ml of a culture in nutrive media of Klebsiella pneumonia 52,145 diluted by 1/1000 with distilled water. The products were administered subcutaneously 30 minutes, 4, 8, 24 and 32 hours after the injection and the number of dead mice was determined during 10th days.

Escherichia Coli 19 976 = test: MIC, liquid medium dilution; assay type: cell-based
Protocol: as §1

[21] = test system: Golden Staphylococcus 68 666; test: MIC, liquid medium dilution; assay type: cell-based
Protocol: as §1

Escherichia Coli 68 696 = test: MIC, liquid medium dilution; assay type: cell-based
Protocol: as §1

Escherichia Coli 72 806 = test: MIC, liquid medium dilution; assay type: cell-based
Protocol: as §1

Escherichia Coli 21 976 = test: MIC, liquid medium dilution; assay type: cell-based
Protocol: as §1

Escherichia Coli 73 316 = test: MIC, liquid medium dilution; assay type: cell-based
Protocol: as §1

[22] = test system: White Staphylococcus 21 976; test: MIC, liquid medium dilution; assay type: cell-based
Protocol: as §1

[23] = test system: Pathogenic white Staphylococcus 69 396; test: MIC, liquid medium dilution; assay type: cell-based
Protocol: as §1

Escherichia Coli 68 956 = test: MIC, liquid medium dilution; assay type: cell-based
Protocol: as §1

Escherichia Coli 69 916 = test: MIC, liquid medium dilution; assay type: cell-based
Protocol: as §1

Escherichia Coli 69 886 = test: MIC, liquid medium dilution; assay type: cell-based
Protocol: as §1

[24] = test system: Klebsiella pneumonia 52,145; test: Experimental infection with Klebsiella pneumonia in mice (D); assay type: in vivo
Protocol: The activity of the products of Examples 19 and 21 was studied on an experimental infection of Klebsiella pneumonia in mice. Groups of 10 male mice weighing 21.5 g received intraperitoneally 0.5 ml of a 24 hour culture in nutritive media of Klebsiella pneumonia 52,145 diluted by 1/1000 with distilled water. The products were administered subcutaneously 1,5 and 24 hours after the injection and the number of dead mice were determined using 10th days.

**Q.** Which hygroscopicity [1] does the source give for `CO/N=C(\C(=O)NC1C(=O)N2C(C(=O)O)=C(CSC(C)=O)CSC12)c1csc(N)n1` (stereo not shown) [Example 22, sodium 3-acetylthiomethyl-7-[{2-(2-amino-4-thiazolyl)-2-methoxyiminoacetyl}amino]-ceph-3-eme-4-carboxylate] here?
**A.** non-hydroscopic

**Q.** What does the source list for `CO/N=C(\C(=O)NC1C(=O)N2C(C(=O)O)=C(CSc3nnnn3C)CS[C@H]12)c1csc(N)n1` (stereo partly shown) [Example 4, 7-[{2-(2-amino-4-thiazolyl)-2-methoxyiminoacetyl}amino]-3-[(1-methyl-tetrazol-5-yl)-thiomethyl]-ceph-3-eme-4-carboxylic acid]?
**A.** MIC ([2]; 24 h): 0.2 µg/mL (≈ 0.391 µM); MIC ([2]; 48 h): 0.2 µg/mL (≈ 0.391 µM); MIC (Providencia Du 48; DU48, 24 h): 2 µg/mL (≈ 3.91 µM); MIC (Providencia Du 48; DU48, 48 h): 2 µg/mL (≈ 3.91 µM); MIC ([3]; A561, 24 h): ≤ 0.02 µg/mL; MIC ([3]; A561, 48 h): ≤ 0.02 µg/mL; MIC ([4]; Enterococcus faecalis, 5432, 24 h): 2 µg/mL (≈ 3.91 µM); MIC ([4]; Enterococcus faecalis, 5432, 48 h): 2 µg/mL (≈ 3.91 µM); MIC ([5]; ATCC11, 24 h): 0.05 µg/mL (≈ 0.0977 µM); MIC ([5]; ATCC11, 48 h): 0.05 µg/mL (≈ 0.0977 µM); MIC ([6]; 24 h): 1 µg/mL (≈ 1.95 µM); MIC ([6]; 48 h): 1 µg/mL (≈ 1.95 µM); MIC ([7]; ATCC6, 24 h): 1 µg/mL (≈ 1.95 µM); MIC ([7]; ATCC6, 48 h): 1 µg/mL (≈ 1.95 µM); MIC (Enterobacter cloacae 681; Enterobacter cloacae, 681, 24 h): 20 µg/mL (≈ 39.1 µM); MIC (Enterobacter cloacae 681; Enterobacter cloacae, 681, 48 h): 20 µg/mL (≈ 39.1 µM); MIC ([8]; ATCC6, 24 h): 2 µg/mL (≈ 3.91 µM); MIC ([8]; ATCC6, 48 h, read-out: MIC): 5 µg/mL (≈ 9.77 µM); MIC ([9]; ATCC9, 24 h): 0.4 µg/mL (≈ 0.782 µM); MIC ([9]; ATCC9, 48 h): 0.4 µg/mL (≈ 0.782 µM); MIC ([10]; 24 h): 0.2 µg/mL (≈ 0.391 µM); MIC ([10]; 48 h): 0.2 µg/mL (≈ 0.391 µM); MIC ([11]; 24 h): 2 µg/mL (≈ 3.91 µM); MIC ([11]; 48 h): 2 µg/mL (≈ 3.91 µM); MIC ([12]; 24 h): 0.2 µg/mL (≈ 0.391 µM); MIC ([12]; 48 h): 0.2 µg/mL (≈ 0.391 µM); MIC ([13]; 24 h): 0.4 µg/mL (≈ 0.782 µM); MIC ([13]; 48 h, read-out: MIC): 0.6 µg/mL (≈ 1.17 µM); MIC ([14]; 24 h): 20 µg/mL (≈ 39.1 µM); MIC ([14]; 48 h, read-out: MIC): 40 µg/mL (≈ 78.2 µM); MIC ([15]; EXP.52145, 24 h): 0.02 µg/mL (≈ 0.0391 µM); MIC ([15]; EXP.52145, 48 h): 0.02 µg/mL (≈ 0.0391 µM); MIC ([16]; UC1, 24 h): 2 µg/mL (≈ 3.91 µM); MIC ([16]; UC1, 48 h): 2 µg/mL (≈ 3.91 µM); MIC ([17]; 99F74, 24 h): 2 µg/mL (≈ 3.91 µM); MIC ([17]; 99F74, 48 h, read-out: MIC): 10 µg/mL (≈ 19.5 µM); MIC ([18]; 24 h): 0.05 µg/mL (≈ 0.0977 µM); MIC ([18]; 48 h): 0.05 µg/mL (≈ 0.0977 µM); MIC ([19]; 24 h, read-out: MIC): 3 µg/mL (≈ 5.86 µM); MIC ([19]; 48 h): 20 µg/mL (≈ 39.1 µM); Mice alive on the 10th day ([20]; 5 × 0,1 mg): 9/10; Mortality after 5 J (number of dead of 10) ([20]; 5 × 0,1 mg): 1; Mice alive on the 10th day ([20]; 5 × 0,25 mg): 10/10

**Q.** What does the source list for `CO/N=C(\C(=O)NC1C(=O)N2C(C(=O)O)=C(CSC(C)=O)CSC12)c1csc(N)n1` (stereo not shown) [Example 21, sodium 3-acetylthiomethyl-7-[{2-(2-amino-4-thiazolyl)-2-methoxyiminoacetyl}amino]-ceph-3-eme-4-carboxylate]?
**A.** MIC (Escherichia Coli 19 976; COLI19976, 24 h, read-out: MIC): 0.6 µg/mL; MIC (Escherichia Coli 19 976; COLI19976, 48 h): 0.6 µg/mL; MIC ([21]; 24 h): 3 µg/mL; MIC ([21]; 48 h): 5 µg/mL; MIC (Escherichia Coli 68 696; COLI68696, 24 h): 0.4 µg/mL; MIC (Escherichia Coli 68 696; COLI68696, 48 h): 0.4 µg/mL; MIC (Escherichia Coli 72 806; COLI72806, 24 h): 1 µg/mL; MIC (Escherichia Coli 72 806; COLI72806, 48 h): 1 µg/mL; MIC (Escherichia Coli 21 976; COLI21976, 24 h, read-out: MIC): 0.6 µg/mL; MIC (Escherichia Coli 21 976; COLI21976, 48 h): 0.6 µg/mL; MIC (Escherichia Coli 73 316; COLI73316, 24 h): 0.2 µg/mL; MIC (Escherichia Coli 73 316; COLI73316, 48 h): 0.2 µg/mL; MIC ([22]; 24 h): 3 µg/mL; MIC ([22]; 48 h): 5 µg/mL; MIC ([23]; 24 h): 2 µg/mL; MIC ([23]; 48 h): 2 µg/mL; MIC (Escherichia Coli 68 956; COLI68956, 24 h): 0.4 µg/mL; MIC (Escherichia Coli 68 956; COLI68956, 48 h): 0.4 µg/mL; MIC (Escherichia Coli 69 916; COLI69916, 24 h): 0.4 µg/mL; MIC (Escherichia Coli 69 916; COLI69916, 48 h): 0.4 µg/mL; MIC (Escherichia Coli 69 886; COLI69886, 24 h, read-out: MIC): 0.6 µg/mL; MIC (Escherichia Coli 69 886; COLI69886, 48 h): 1 µg/mL; Mice alive on the 10th day ([24]; subcutaneous, 0,1 mg): 9/10; Mortality after 4eJ (number of dead of 10) ([24]; subcutaneous, 0,1 mg): 1; Mice alive on the 10th day ([24]; subcutaneous, 0,05 mg): 9/10; Mortality after 73H 15 (number of dead of 10) ([24]; subcutaneous, 0,05 mg): 1; Mice alive on the 10th day ([24]; subcutaneous, 0,5 mg): 10/10; Mice alive on the 10th day ([24]; subcutaneous, 0,25 mg): 10/10; Mice alive on the 10th day ([24]; subcutaneous, 1 mg): 10/10
